From US20250250303A1 (THE TRUSTEES OF COLUMBIA UNIVERSITY IN THE CITY OF NEW YORK, priority 2022, published 2025)
Bridge positions count the residues as written; N and C are the ends. Peptide text beside a SMILES is read from it.

Assays:
[1] = test system: 3T3-L1 and IR-transfected L6 myoblasts; settings: cited from earlier work
[2] = target: insulin-like growth factor 1 receptor (IGF1R) (Homo sapiens, UniProt P08069); settings: previous studies; cited from earlier work
[3] = target: T1, IR K484E/L552A (Homo sapiens, UniProt P06213, K511E/L579A); assay: IR activation assay in 293 FT cells, IR K484E/L552A double mutant; format: cell-based; settings: 10 nM for 10 min
T1 construct: expressed in transfected cells; host or cells: 293 FT cells
T1 sequence (P06213 28-1370 isoform P06213-2 K511E/L579A limits assumed): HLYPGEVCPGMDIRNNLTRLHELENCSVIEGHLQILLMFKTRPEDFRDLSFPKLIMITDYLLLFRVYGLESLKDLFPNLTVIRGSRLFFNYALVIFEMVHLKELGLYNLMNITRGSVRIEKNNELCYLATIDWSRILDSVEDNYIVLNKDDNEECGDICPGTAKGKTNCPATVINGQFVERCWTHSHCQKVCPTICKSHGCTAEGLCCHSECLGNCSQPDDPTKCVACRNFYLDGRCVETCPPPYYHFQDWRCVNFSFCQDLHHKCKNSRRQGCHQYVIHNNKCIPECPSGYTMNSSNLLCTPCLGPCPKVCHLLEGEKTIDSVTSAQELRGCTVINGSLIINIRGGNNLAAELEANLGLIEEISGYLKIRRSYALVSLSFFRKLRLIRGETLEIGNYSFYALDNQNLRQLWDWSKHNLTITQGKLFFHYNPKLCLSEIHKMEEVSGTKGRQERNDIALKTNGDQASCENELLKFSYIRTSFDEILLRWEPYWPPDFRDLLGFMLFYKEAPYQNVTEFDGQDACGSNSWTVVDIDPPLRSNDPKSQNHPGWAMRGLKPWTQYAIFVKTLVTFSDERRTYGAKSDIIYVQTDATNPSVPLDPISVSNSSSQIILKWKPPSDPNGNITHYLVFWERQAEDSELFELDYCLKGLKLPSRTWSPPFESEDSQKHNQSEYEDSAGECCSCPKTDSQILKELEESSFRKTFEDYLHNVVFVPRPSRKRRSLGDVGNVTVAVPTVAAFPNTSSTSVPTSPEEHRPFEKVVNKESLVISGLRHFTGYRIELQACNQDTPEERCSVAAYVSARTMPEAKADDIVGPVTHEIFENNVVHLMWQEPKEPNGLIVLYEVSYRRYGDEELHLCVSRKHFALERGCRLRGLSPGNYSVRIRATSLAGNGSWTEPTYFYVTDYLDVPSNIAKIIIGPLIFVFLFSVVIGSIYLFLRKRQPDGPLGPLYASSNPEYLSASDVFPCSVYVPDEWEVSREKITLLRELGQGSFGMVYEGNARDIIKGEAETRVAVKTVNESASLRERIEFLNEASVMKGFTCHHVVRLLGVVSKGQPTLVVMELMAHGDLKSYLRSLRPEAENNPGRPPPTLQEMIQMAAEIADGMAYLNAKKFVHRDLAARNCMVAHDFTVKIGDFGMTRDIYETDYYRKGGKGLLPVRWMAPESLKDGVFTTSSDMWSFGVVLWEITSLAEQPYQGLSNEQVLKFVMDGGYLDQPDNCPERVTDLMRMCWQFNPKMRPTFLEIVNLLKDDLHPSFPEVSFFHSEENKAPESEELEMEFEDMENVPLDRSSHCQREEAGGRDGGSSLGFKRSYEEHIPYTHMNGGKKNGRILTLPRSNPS
T1 sequence (P06213 763-1382 partner limits assumed): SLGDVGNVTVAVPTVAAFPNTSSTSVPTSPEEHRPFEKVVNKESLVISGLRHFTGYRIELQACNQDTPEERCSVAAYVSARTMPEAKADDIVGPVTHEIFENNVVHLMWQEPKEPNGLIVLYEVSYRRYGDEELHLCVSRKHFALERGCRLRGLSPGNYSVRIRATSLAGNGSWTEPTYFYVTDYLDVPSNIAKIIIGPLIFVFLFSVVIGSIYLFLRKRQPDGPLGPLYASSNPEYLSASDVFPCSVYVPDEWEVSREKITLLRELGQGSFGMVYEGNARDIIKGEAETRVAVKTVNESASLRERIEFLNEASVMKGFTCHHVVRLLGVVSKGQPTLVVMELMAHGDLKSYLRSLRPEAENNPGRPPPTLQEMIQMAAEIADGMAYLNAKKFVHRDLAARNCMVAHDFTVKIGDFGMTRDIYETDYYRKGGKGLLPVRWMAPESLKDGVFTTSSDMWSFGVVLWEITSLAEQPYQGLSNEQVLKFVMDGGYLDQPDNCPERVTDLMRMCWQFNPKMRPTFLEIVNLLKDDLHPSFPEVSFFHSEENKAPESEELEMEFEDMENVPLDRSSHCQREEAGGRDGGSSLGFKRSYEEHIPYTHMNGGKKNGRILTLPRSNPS

[4] = test system: CAL33; assay: IR signaling in cancer cells, CAL33; format: cell-based; settings: 10, 100 or 300 nM for 10 minutes
[5] = target: IR (Mus musculus, UniProt P15208); assay: Insulin receptor endocytosis in vivo (liver sections); set-up: from tissue; host or cells: liver of C57BL/6J mice; species or system mice
IR, sequence (P15208 28-748 limits assumed): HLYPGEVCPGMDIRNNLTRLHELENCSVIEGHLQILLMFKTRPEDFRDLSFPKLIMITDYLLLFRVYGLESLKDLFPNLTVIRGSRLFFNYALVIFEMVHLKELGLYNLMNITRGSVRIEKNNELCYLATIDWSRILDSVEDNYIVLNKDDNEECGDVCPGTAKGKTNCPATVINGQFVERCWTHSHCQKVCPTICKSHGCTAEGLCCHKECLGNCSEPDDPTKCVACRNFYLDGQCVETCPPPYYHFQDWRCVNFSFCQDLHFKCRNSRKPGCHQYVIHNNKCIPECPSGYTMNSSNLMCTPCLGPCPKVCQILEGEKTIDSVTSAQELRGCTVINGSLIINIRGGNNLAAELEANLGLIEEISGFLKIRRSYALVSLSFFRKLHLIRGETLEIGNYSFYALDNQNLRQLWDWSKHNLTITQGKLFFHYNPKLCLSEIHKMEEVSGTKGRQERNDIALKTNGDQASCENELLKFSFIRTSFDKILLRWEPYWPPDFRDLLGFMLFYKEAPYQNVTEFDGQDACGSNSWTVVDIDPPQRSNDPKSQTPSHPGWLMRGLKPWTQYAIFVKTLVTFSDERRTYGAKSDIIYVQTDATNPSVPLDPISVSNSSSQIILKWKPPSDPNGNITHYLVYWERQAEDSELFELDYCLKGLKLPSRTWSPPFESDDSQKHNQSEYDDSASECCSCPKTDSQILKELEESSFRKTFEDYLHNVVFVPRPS
IR, sequence (P15208 753-1372 partner limits assumed): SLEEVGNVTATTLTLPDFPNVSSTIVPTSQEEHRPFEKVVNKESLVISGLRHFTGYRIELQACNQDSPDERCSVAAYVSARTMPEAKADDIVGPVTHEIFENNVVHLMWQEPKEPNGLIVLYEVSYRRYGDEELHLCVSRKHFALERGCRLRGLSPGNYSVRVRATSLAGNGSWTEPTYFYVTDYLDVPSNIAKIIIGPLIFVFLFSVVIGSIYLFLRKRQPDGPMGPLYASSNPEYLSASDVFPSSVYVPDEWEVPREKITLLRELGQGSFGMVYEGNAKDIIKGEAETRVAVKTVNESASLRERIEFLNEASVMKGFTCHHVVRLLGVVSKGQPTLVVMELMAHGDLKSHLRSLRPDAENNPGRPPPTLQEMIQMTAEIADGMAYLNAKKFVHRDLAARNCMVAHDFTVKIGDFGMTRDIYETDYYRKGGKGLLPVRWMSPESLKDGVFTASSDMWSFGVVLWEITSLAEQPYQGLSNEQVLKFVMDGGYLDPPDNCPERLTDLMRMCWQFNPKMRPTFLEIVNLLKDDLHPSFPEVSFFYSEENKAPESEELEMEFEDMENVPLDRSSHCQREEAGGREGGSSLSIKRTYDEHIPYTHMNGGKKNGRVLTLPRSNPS
Procedure: For IR endocytosis assays, the livers were fixed in 10% Neutral Buffered Formalin (NBF) and embedded in paraffin blocks. Sections were deparaffinized, subjected to immunohistochemistry as described in the immunohistochemistry section and previous study.
The immunohistochemistry was performed as described earlier with some modifications. Mouse tissues were fixed in 10% NBF and embedded in paraffin blocks by the Molecular Pathology Core at Columbia University. The deparaffinized sections were subjected to antigen retrieval with 10 mM sodium citrate (pH 6.0), incubated with 0.3% H2O2, blocked with 3% bovine serum albumin (BSA), and then incubated with anti-IR antibodies (CT-3, Millipore, Cat. #MABS65, 1:100) in 3% BSA in PBS with 0.1% Triton X-100 (0.1% PBST) at 4° C. overnight. The slides were washed and incubated with secondary antibodies (Alexa Fluor 568 donkey anti-mouse, Invitrogen, Cat. #A10037, 1:200). The washed slides were stained with 4′,6′-diamidino-2-phenylindole (DAPI). Ten images were randomly taken under x60 magnification with a Leica Thunder Imager (Leica Microsystems Inc.). Images of sections were acquired as series of 0.2 μm stacks. The cell edges were defined with Image J as described earlier. The whole cell signal intensity (WC) and intracell cellular intensity (IC) were measured. The plasma membrane signal intensity (PM) was calculated by subtracting IC from WC. […]

[6] = test system: IR signaling; assay: IR signaling in primary mouse hepatocytes; format: cell-based
Procedure: Primary hepatocytes were isolated from 2-month-old male mice with a standard two-step collagenase perfusion procedure as described earlier with some modifications. […] After 1-2 sec upon appearance of white spots in the liver, the portal vein was cut with scissors to wash out blood, and then the liver was perfused with 30 ml of Liver Digest Medium (Thermo Scientific, Cat. #17703034). Dissected liver was gently washed with low glucose DMEM and transferred to sterile culture dish containing 15 ml Liver Digest Medium. The isolated liver cells were filtered through the 70 μm cell strainer into a 50 ml tube. After centrifuge at 50 g for 5 min at 4° C., cells were washed with cold low glucose DMEM three times. […] After 2 hr., the medium was changed to serum free low-glucose DMEM.
The cells were incubated with the lysis buffer B [50 mM Hepes pH 7.4, 150 mM NaCl, 10% Glycerol, 1% Triton X-100, 1 mM EDTA, 100 mM sodium fluoride, 2 mM sodium orthovanadate, 20 mM sodium pyrophosphate, 0.5 mM dithiothreitol (DTT), 2 mM phenylmethylsulfonyl fluoride (PMSF)] supplemented with complete Protease Inhibitor Cocktail (Roche), PhosSTOP (Sigma), and 25 U/ml turbo nuclease (Accelagen) on ice for 1 hr. After centrifuge at 20,817 g at 4° C. for 10 min, the concentrations of cell lysate were measured using Micro BCA Protein Assay Kit (Thermo Scientific). About 50-60 μg total proteins were analyzed by SDS-PAGE and quantitative Western blotting. The following antibodies were purchased from commercial sources: Anti-IR-pY1150/1151 (WB, 1:1000; 19H6; labeled as pY IR, Cat. #3024), anti-AKT (WB, 1:1000; 40D4, Cat. #2920), anti-pS473 AKT (WB, 1:1000; D9E, Cat. #4060), anti-ERK1/2 (WB, 1:1000; L34F12, Cat. #4696), anti-pERK1/2 (WB, […]; 197G2, Cat. #4377), anti-IRS1-pS616 (WB, 1:1000; C15H5, Cell Signaling, Cat. #3203); anti-IRS1 (WB, 1:1000; A301-158A, Bethyl Laboratory); anti-IR (WB, 1:500, CT-3, Santa Cruz; labeled as IR for primary hepatocytes and MEFs, Cat. #sc-57342); anti-IR (WB, 1:1000; EPR23566-103; labeled as IR for FIG. 31, ab278100, Abcam); anti-Myc (WB, 1:2000; 9E10, Cat. #11667149001, Roche; labeled as IR for 293 FT cells). For quantitative western blots, anti-rabbit immunoglobulin G (IgG) (H+L) (WB, 1:5000; Dylight 800 conjugates, Cat. #5151) and anti-mouse IgG (H+L) (WB, 1:5000; Dylight 680 conjugates, Cat. #5470) (Cell Signaling) were used as secondary antibodies. The membranes were scanned with the Odyssey Infrared Imaging System (Li—COR, Lincoln, NE).

[7] = target: T2, IR R345A (Homo sapiens, UniProt P06213, R372A); assay: IR activation assay in 293 FT cells, IR R345A mutant; format: cell-based; settings: 10 nM for 10 min
T2 construct: expressed in transfected cells; host or cells: 293 FT cells
T2 sequence (P06213 28-1370 isoform P06213-2 R372A limits assumed): as the sequence (P06213 28-1370 isoform P06213-2 K511E/L579A limits assumed) above, with R345A, E484K, A552L counted along it
T2 sequence (P06213 763-1382 partner limits assumed): as the sequence (P06213 763-1382 partner limits assumed) above

[8] = test system: full-length IGF1R; assay: In vitro competition assay for full-length IGF1R; format: binding
[9] = test system: SREBP1; assay: Immunofluorescence assay for SREBP1 translocation in primary hepatocytes; format: cell-based, mouse; settings: 100 nM for 30 min
Procedure: Primary hepatocytes were as described in the primary hepatocyte isolation section. […] Cells were fixed with 4% paraformaldehyde for 10 min. The fixed cells were incubated with PBS for 30 min and 3% BSA in PBS with 0.1% Triton X-100 (0.1% PBST) for 1 hr., and then treated with anti-SREBP1 antibodies (20B12, Millipore, Cat. #MABS1987, 1:200) in 3% BSA in 0.1% PBST at 4° C. overnight. After being washed, cells were incubated with secondary antibodies (Alexa Fluor 488 goat anti-rabbit, Invitrogen, Cat. #A11008, 1:200) for 1 hr. Cells were washed and mounted on microscope slides in ProLong Gold Antifade reagent with DAPI (Invitrogen). Images were acquired as a series of 0.2 μm stacks with a Leica Thunder Imager (Leica Microsystems Inc.). Raw images were deconvolved using LAS X Software (Leica Microsystems Inc.). The nuclear edges and the nuclear SREBP1 signal were defined with Image J. Identical exposure times and magnifications were used for all comparative analyses.

insulin-like growth factor 1 receptor (IGF1R), sequence (P08069 31-736 limits assumed, species assumed): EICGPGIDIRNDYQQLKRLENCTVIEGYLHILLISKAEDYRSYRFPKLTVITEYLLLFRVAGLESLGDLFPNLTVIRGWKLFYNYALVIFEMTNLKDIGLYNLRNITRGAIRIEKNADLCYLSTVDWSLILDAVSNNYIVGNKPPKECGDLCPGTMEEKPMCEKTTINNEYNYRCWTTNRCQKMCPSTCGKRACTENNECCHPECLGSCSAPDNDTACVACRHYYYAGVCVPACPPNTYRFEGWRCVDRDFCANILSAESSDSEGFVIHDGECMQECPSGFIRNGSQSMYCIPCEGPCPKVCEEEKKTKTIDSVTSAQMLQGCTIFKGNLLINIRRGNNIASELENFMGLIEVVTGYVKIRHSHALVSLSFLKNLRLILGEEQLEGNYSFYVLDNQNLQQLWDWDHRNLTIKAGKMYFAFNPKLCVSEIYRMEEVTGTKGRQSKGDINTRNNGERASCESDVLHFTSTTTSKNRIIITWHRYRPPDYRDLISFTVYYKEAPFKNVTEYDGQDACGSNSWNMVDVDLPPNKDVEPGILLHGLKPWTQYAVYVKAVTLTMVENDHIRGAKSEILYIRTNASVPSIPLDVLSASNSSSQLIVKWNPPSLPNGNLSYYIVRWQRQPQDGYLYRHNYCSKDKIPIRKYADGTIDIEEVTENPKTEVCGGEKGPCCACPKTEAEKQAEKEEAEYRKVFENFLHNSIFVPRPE

## CC[C@H](C)[C@H](NC(=O)[C@H](CCC(N)=O)NC(=O)[C@H](C)NC(=O)[C@H](Cc1c[nH]c2ccccc12)NC(=O)[C@H](CCC(=O)O)NC(=O)[C@H](CCC(=O)O)NC(=O)[C@H](CCC(=O)O)NC(=O)[C@H](CC(C)C)NC(=O)[C@H](CO)NC(C)=O)C(=O)N[C@@H](CCC(=O)O)C(=O)N[C@H]1CSSC[C@@H](C(=O)N2CCC[C@H]2C(=O)N[C@@H](CO)C(=O)N[C@@H](CCC(=O)O)C(=O)N[C@@H](CO)C(=O)N[C@@H](Cc2ccccc2)C(=O)N[C@@H](Cc2ccc(O)cc2)C(=O)N[C@@H](CC(=O)O)C(=O)N[C@@H](Cc2c[nH]c3ccccc23)C(=O)N[C@@H](Cc2ccccc2)C(=O)N[C@@H](CCC(=O)O)C(=O)N[C@@H](CCCNC(=N)N)C(=O)N[C@@H](CCC(N)=O)C(=O)N[C@@H](CC(C)C)C(N)=O)NC(=O)CNC(=O)[C@H](CCCNC(=N)N)NC(=O)CNC(=O)[C@H](Cc2ccc(O)cc2)NC(=O)[C@H](C(C)C)NC(=O)[C@H](CCC(=O)O)NC1=O [S597] (Ac-SLEEEWAQIECEVYGRGCPSESFYDWFERQL-NH2; disulfide 11-18)
[1]
  MAPK pathway: largely inactive
  PI3K-AKT pathway: selectively activates
[2]
  activation of IGF1R: does not activate
[3]
  IR activation (pY IR): could not be activated efficiently
[4]
  IR signaling: failed to activate
[5]
  IR endocytosis / internalization: promoted IR internalization
[6]
  pAKT: increased
  pERK: increased
  pY IR: increased
[7]
  IR activation (pY IR): fully activated
[8]
  binding to IGF1R: do not bind
[9]
  nuclear translocation of SREBP1: stimulated to the same level
